Measurements as given in publication PMC11618052, “Design, synthesis, and antiproliferative activity of new 1,2,3-triazole/quinazoline-4-one hybrids as dual EGFR/BRAF^V600E inhibitors” (RSC Advances, 2024).
“And” between values parts separate entries of the source, which are not always exact repeats. Equal entries are not always repeated.

Columns and labels:
Caspase-8 = Caspase-8 level assay in MCF-7; format: cell-based, human; settings: for Caspase-8 Fold change: MCF-7, versus untreated control; for Caspase-8 Conc.: MCF-7 cancer cell line
Description: Compounds 8g and 8h were evaluated as caspase-3, 8 and Bax activators and as down-regulator of the anti-apoptotic protein Bcl2 against the MCF-7 breast cancer cell line.[40] Appendix A ^† contains more details.
Compound 8g had the most overexpression of caspase-8 (2.60 ng mL^−1), followed by compound 8h (2.10 ng mL^−1) and staurosporine as a control (1.80 ng mL^−1). […]
monitored, and the substrate reaction stopped before the O.D. of the positive wells exceeds the limits of the instrument. The O.D. values at 450 nm can only be read after the Stop Solution has been added to each well. If using a reader that records only to 2.0 O.D., stopping the assay after […]
Add 100 μl of Stop Solution to each well. Tap side of plate gently to mix. The solution in the wells should change from blue to yellow. Read the absorbance of each well at 450 nm having blanked the plate reader against a chromogen blank composed of 100 μl each of Stabilized Chromogen and Stop Solution. Read the plate within 2 hours after adding the Stop Solution. Use a curve fitting software to generate the standard curve. A four-parameter algorithm provides the best standard curve fit. Read the concentrations for unknown samples and controls from the standard curve. Multiply value(s) obtained for sample(s) by the appropriate dilution factor to correct for the dilution in step 3. Samples producing signals greater than that of the highest standard should be diluted in Standard Diluent Buffer and reanalyzed.
4.2.1.6. Caspase-8 activation assay
Cells were obtained from American Type Culture Collection, cells were grown in RPMI 1640 containing 10% fetal bovine serum at 37°C, stimulated with the compounds to be tested for caspase8, and lysed with Cell Extraction Buffer. This lysate was diluted in Standard Diluent Buffer over the range of the assay and measured for human active caspase-8 content. (Cells are Plated in a density of 1.2 – 1.8 × 10,000 cells/well in a volume of 100µl complete growth medium + 100 ul of the tested compound per well in a 96-well plate for 24 hours before the enzyme assay for Tubulin.). The absorbance of each microwell was read on a spectro-photometer at 450 nm. A standard curve is prepared from 7human Caspase-8 standard dilutions and human Caspase-8 concentration determined.
4.2.1.7. Bax activation assay

Bcl-2 = Bcl-2 level assay in MCF-7; format: cell-based, human; settings: for Bcl-2 Fold reduction: MCF-7, versus untreated control; for Bcl-2 Conc.: MCF-7 cancer cell line
Description: Compounds 8g and 8h were evaluated as caspase-3, 8 and Bax activators and as down-regulator of the anti-apoptotic protein Bcl2 against the MCF-7 breast cancer cell line.[40] Appendix A ^† contains more details. […]
4.2.1.8. Bcl-2inhibition assay
Mix all reagents thoroughly without foaming before use. Wash the microwells twice with approximately 300 μL Wash Buffer per well with thorough aspiration of microwell contents between washes. Take caution not to scratch the surface of the microwells. After the last wash, empty the wells and tap microwell strips on absorbent pad or paper towel to remove excess Wash Buffer. Use the microwell strips immediately after washing or place upside down on a wet absorbent paper for not longer than 15 minutes. […] Add 100 μL of Sample […]
Diluent in duplicate to all standard wells and to the blank wells. Prepare standard (1:2 dilution) in duplicate ranging from 32 ng/mL to 0.5 ng/mL. Add 100 μL of Sample Diluent, in duplicate, to the blank wells. Add 80 μL of Sample Diluent, in duplicate, to the sample wells. Add 20 μL of each Sample, in duplicate, to the designated wells. Add 50 μL of diluted biotin-conjugate to all wells, including the blank wells. Cover with a plate cover and incubate at room temperature, on a microplate shaker at 100 rpm if available, for 2 hours. Remove plate cover and empty the wells.
Wash microwell strips 3 times as described in step 2. Add 100 μL of diluted Streptavidin-HRP to all wells, including the blank wells. Cover with a plate cover and incubate at room temperature, on a microplate shaker at 100 rpm if available, for 1 hour. Remove plate cover and empty the wells.
Wash microwell strips 3 times as described in step 2. Proceed to the next step. Pipette 100 μl of mixed TMB Substrate Solution to all wells, including the blanks. Incubate the microwell strips at room temperature (18° to 25°C) for about 15 minutes, if available on a rotator set at 100 rpm.
Avoid direct exposure to intense light. The point, at which the substrate reaction is stopped, is often determined by the ELISA reader. Many ELISA readers record absorbance only up to 2.0
O.D. Therefore, the color development within individual microwells must be watched by the person running the assay and the substrate reaction stopped before positive wells are no longer properly detectable. Stop the enzyme reaction by quickly pipetting 100 μL of Stop Solution into each well, including the blank wells. It is important that the Stop Solution is spread quickly and uniformly throughout the microwells to completely inactivate the enzyme. Results must be read immediately after the Stop Solution is added or within one hour if the microwell strips are stored at 2 - 8°C in the dark. Read absorbance of each microwell on a spectrophotometer using 450 nm as the primary wavelength. […]
(FITC) and propidium iodide (PI) staining kit (BD Pharmingen, San Diego, USA). […]
μL of FITC and PI were added to Eppendorf tube, cells were vortexed, incubated for 15 min at room temperature in dark. Subsequently, cells were analyzed by flow cytometry (Becton Dickinson, Franklin Lakes, and USA).

## CN[C@@H]1C[C@H]2O[C@@](C)([C@@H]1OC)n1c3ccccc3c3c4c(c5c6ccccc6n2c5c31)C(=O)NC4 [Staurosporine, reference compound]
Caspase-8
  Caspase-8 Fold change: 20
  Caspase-8 Conc.: 1.80 ± 0.10 ng/mL
Caspase-8; listed as staurosporine
  Caspase-8 Conc.: 1.80 ng/mL
Bcl-2
  Bcl-2 Fold reduction: 5
  Bcl-2 Conc.: 1.10 ng/mL

## COc1ccc(-n2cc(CSc3nc4ccccc4c(=O)n3-c3ccc(C)cc3)nn2)cc1 [Compound 8g, 2-(((1-(4-Methoxyphenyl)-1H-1,2,3-triazol-4-yl)methyl)thio)-3-(p-tolyl)quinazolin-4(3H)-one]
Caspase-8
  Caspase-8 Fold change: 28
  Caspase-8 Conc.: 2.60 ng/mL and 2.60 ± 0.20 ng/mL
Bcl-2
  Bcl-2 Fold reduction: 7
  Bcl-2 Conc.: 0.70 ng/mL

## Cc1ccc(-n2cc(CSc3nc4ccccc4c(=O)n3-c3ccc(C)cc3)nn2)cc1 [Compound 8h, 2-(((1-(p-Tolyl)-1H-1,2,3-triazol-4-yl)methyl)thio)-3-(p-tolyl)quinazolin-4(3H)-one]
Caspase-8
  Caspase-8 Fold change: 23
  Caspase-8 Conc.: 2.10 ng/mL and 2.10 ± 0.20 ng/mL
Bcl-2
  Bcl-2 Fold reduction: 6
  Bcl-2 Conc.: 0.90 ng/mL
